{"source": "ChEMBL document CHEMBL1201862", "about": "“PubChem BioAssay data set” (2004)", "assay_in_all_cases": "growth of human tumour cells (NCI), 48 h", "key": {"SNB-75": {"test_system": "SNB-75"}, "M14": {"test_system": "M14"}, "MDA-MB-231": {"test_system": "MDA-MB-231"}, "NCI-H23": {"test_system": "NCI-H23"}, "COLO 205": {"test_system": "COLO 205"}, "A549": {"test_system": "A549"}, "HCC 2998": {"test_system": "HCC 2998"}, "UACC-257": {"test_system": "UACC-257"}, "HCT-15": {"test_system": "HCT-15"}, "IGROV-1": {"test_system": "IGROV-1"}, "SK-OV-3": {"test_system": "SK-OV-3"}, "RXF 393": {"test_system": "RXF 393"}, "TK-10": {"test_system": "TK-10"}, "BT-549": {"test_system": "BT-549"}, "SF-539": {"test_system": "SF-539"}, "SR": {"test_system": "SR"}, "RPMI-8226": {"test_system": "RPMI-8226"}, "SF-268": {"test_system": "SF-268"}, "DU-145": {"test_system": "DU-145"}, "EKVX": {"test_system": "EKVX"}, "SW-620": {"test_system": "SW-620"}, "OVCAR-5": {"test_system": "OVCAR-5"}, "LOX IMVI": {"test_system": "LOX IMVI"}, "ACHN": {"test_system": "ACHN"}, "HOP-92": {"test_system": "HOP-92"}, "SK-MEL-2": {"test_system": "SK-MEL-2"}, "SF-295": {"test_system": "SF-295"}, "MCF7": {"test_system": "MCF7"}, "CCRF-CEM": {"test_system": "CCRF-CEM"}, "UACC-62": {"test_system": "UACC-62"}, "U-251": {"test_system": "U-251"}, "A498": {"test_system": "A498"}, "KM12": {"test_system": "KM12"}, "NCI-H522": {"test_system": "NCI-H522"}, "OVCAR-8": {"test_system": "OVCAR-8"}, "UO-31": {"test_system": "UO-31"}, "PC-3": {"test_system": "PC-3"}, "MDA-N": {"test_system": "MDA-N"}, "Hs-578T": {"test_system": "Hs-578T"}, "SK-MEL-5": {"test_system": "SK-MEL-5"}, "MDA-MB-435": {"test_system": "MDA-MB-435"}, "HL-60": {"test_system": "HL-60"}, "786-0": {"test_system": "786-0"}, "MOLT-4": {"test_system": "MOLT-4"}, "SN12C": {"test_system": "SN12C"}, "T47D": {"test_system": "T47D"}, "K562": {"test_system": "K562"}, "HOP-62": {"test_system": "HOP-62"}, "HCT-116": {"test_system": "HCT-116"}, "OVCAR-3": {"test_system": "OVCAR-3"}, "NCI/ADR-RES": {"test_system": "NCI/ADR-RES"}, "NCI-H460": {"test_system": "NCI-H460"}, "SK-MEL-28": {"test_system": "SK-MEL-28"}, "HT-29": {"test_system": "HT-29"}, "SNB-19": {"test_system": "SNB-19"}, "OVCAR-4": {"test_system": "OVCAR-4"}, "CAKI-1": {"test_system": "CAKI-1"}}, "note": "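Where inhibition never reached the appropriate level, the endpoint shown equals the highest concentration tested. Otherwise, values were interpolated linearly from a five-concentration, 48-hour dose response in 96-well plates. Here, GI50 denotes the concentration required for 50% inhibition of growth.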 Calls of active or inactive are those of the source. No stated cut-off is given here; in the data, active = GI50 up to about 1.1 µM and inactive = higher.", "data": [{"smiles": "O=C(Nc1ccccc1)c1cc(S(=O)(=O)N2CCNC2=O)c(S)cc1Cl", "values": [{"measurement": "GI50", "setting": "SNB-75", "result": "> 100 µM (inactive)"}, {"measurement": "GI50", "setting": "M14", "result": "> 100 µM (inactive)"}, {"measurement": "GI50", "setting": "MDA-MB-231", "result": "> 100 µM (inactive)"}, {"measurement": "GI50", "setting": "NCI-H23", "result": "> 100 µM (inactive)"}, {"measurement": "GI50", "setting": "COLO 205", "result": "> 100 µM (inactive)"}, {"measurement": "GI50", "setting": "A549", "result": "> 100 µM (inactive)"}, {"measurement": "GI50", "setting": "HCC 2998", "result": "> 100 µM (inactive)"}, {"measurement": "GI50", "setting": "UACC-257", "result": "> 100 µM (inactive)"}, {"measurement": "GI50", "setting": "HCT-15", "result": "> 100", "unit": "µM"}, {"measurement": "GI50", "setting": "IGROV-1", "result": "> 100 µM (inactive)"}, {"measurement": "GI50", "setting": "SK-OV-3", "result": "> 100 µM (inactive)"}, {"measurement": "GI50", "setting": "RXF 393", "result": "> 100 µM (inactive)"}, {"measurement": "GI50", "setting": "TK-10", "result": "> 100 µM (inactive)"}, {"measurement": "GI50", "setting": "BT-549", "result": "> 100 µM (inactive)"}, {"measurement": "GI50", "setting": "SF-539", "result": "> 100 µM (inactive)"}, {"measurement": "GI50", "setting": "SR", "result": "> 100 µM (inactive)"}, {"measurement": "GI50", "setting": "RPMI-8226", "result": "> 100 µM (inactive)"}, {"measurement": "GI50", "setting": "SF-268", "result": "> 100 µM (inactive)"}, {"measurement": "GI50", "setting": "DU-145", "result": "> 100 µM (inactive)"}, {"measurement": "GI50", "setting": "EKVX", "result": "> 100 µM (inactive)"}, {"measurement": "GI50", "setting": "SW-620", "result": "> 100 µM (inactive)"}, {"measurement": "GI50", "setting": "OVCAR-5", "result": "> 100 µM (inactive)"}, {"measurement": "GI50", "setting": "LOX IMVI", "result": "> 100 µM (inactive)"}, {"measurement": "GI50", "setting": "ACHN", "result": "> 100 µM (inactive)"}, {"measurement": "GI50", "setting": "HOP-92", "result": "> 100 µM (inactive)"}, {"measurement": "GI50", "setting": "SK-MEL-2", "result": "> 100 µM (inactive)"}, {"measurement": "GI50", "setting": "SF-295", "result": "> 100 µM (inactive)"}, {"measurement": "GI50", "setting": "MCF7", "result": "> 100 µM (inactive)"}, {"measurement": "GI50", "setting": "CCRF-CEM", "result": "> 100 µM (inactive)"}, {"measurement": "GI50", "setting": "UACC-62", "result": "> 100 µM (inactive)"}, {"measurement": "GI50", "setting": "U-251", "result": "> 100 µM (inactive)"}, {"measurement": "GI50", "setting": "A498", "result": "> 100 µM (inactive)"}, {"measurement": "GI50", "setting": "KM12", "result": "> 100 µM (inactive)"}, {"measurement": "GI50", "setting": "NCI-H522", "result": "23.2 µM (inactive)"}, {"measurement": "GI50", "setting": "OVCAR-8", "result": "> 100 µM (inactive)"}, {"measurement": "GI50", "setting": "UO-31", "result": "> 100 µM (inactive)"}, {"measurement": "GI50", "setting": "PC-3", "result": "> 100 µM (inactive)"}, {"measurement": "GI50", "setting": "MDA-N", "result": "> 100 µM (inactive)"}, {"measurement": "GI50", "setting": "Hs-578T", "result": "> 100 µM (inactive)"}, {"measurement": "GI50", "setting": "SK-MEL-5", "result": "> 100 µM (inactive)"}, {"measurement": "GI50", "setting": "MDA-MB-435", "result": "> 100 µM (inactive)"}, {"measurement": "GI50", "setting": "HL-60", "result": "> 100 µM (inactive)"}, {"measurement": "GI50", "setting": "786-0", "result": "> 100 µM (inactive)"}, {"measurement": "GI50", "setting": "MOLT-4", "result": "> 100 µM (inactive)"}, {"measurement": "GI50", "setting": "SN12C", "result": "> 100 µM (inactive)"}, {"measurement": "GI50", "setting": "T47D", "result": "> 100 µM (inactive)"}, {"measurement": "GI50", "setting": "K562", "result": "> 100 µM (inactive)"}, {"measurement": "GI50", "setting": "HOP-62", "result": "> 100 µM (inactive)"}, {"measurement": "GI50", "setting": "HCT-116", "result": "> 100 µM (inactive)"}, {"measurement": "GI50", "setting": "OVCAR-3", "result": "> 100 µM (inactive)"}, {"measurement": "GI50", "setting": "NCI/ADR-RES", "result": "> 100 µM (inactive)"}, {"measurement": "GI50", "setting": "NCI-H460", "result": "> 100 µM (inactive)"}, {"measurement": "GI50", "setting": "SK-MEL-28", "result": "> 100 µM (inactive)"}, {"measurement": "GI50", "setting": "HT-29", "result": "> 100 µM (inactive)"}, {"measurement": "GI50", "setting": "SNB-19", "result": "> 100 µM (inactive)"}, {"measurement": "GI50", "setting": "OVCAR-4", "result": "> 100 µM (inactive)"}, {"measurement": "GI50", "setting": "CAKI-1", "result": "36.6 µM (inactive)"}]}]}
